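How tested: cells in 96-well plates exposed to compound for 48 hours at five concentrations. TGI marks complete inhibition of growth.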
How the values were obtained:
Assay in all cases: inhibition of tumour cell growth, NCI panel, 48 h
HCT-116 colon = system: HCT-116 colon
NCI/ADR-RES ovarian = system: NCI/ADR-RES ovarian
NCI-H460 lung = system: NCI-H460 lung
HOP-92 NSCLC = system: HOP-92 NSCLC
A498 renal = system: A498 renal
SK-MEL-5 melanoma = system: SK-MEL-5 melanoma
RXF 393 renal = system: RXF 393 renal
KM12 colon = system: KM12 colon
ACHN renal = system: ACHN renal
OVCAR-3 ovarian = system: OVCAR-3 ovarian
M14 melanoma = system: M14 melanoma
NCI-H226 lung = system: NCI-H226 lung

O=C(Cc1csc(N=Nc2c(O)[nH]c3ccccc23)n1)Nc1ccccc1
TGI (HCT-116 colon): 50.8 µM | TGI (NCI/ADR-RES ovarian): 41 µM | TGI (NCI-H460 lung): > 100 µM | TGI (HOP-92 NSCLC): > 100 µM | TGI (A498 renal): > 100 µM | TGI (SK-MEL-5 melanoma): > 100 µM | TGI (RXF 393 renal): > 100 µM | TGI (KM12 colon): > 100 µM | TGI (ACHN renal): 54.4 µM | TGI (OVCAR-3 ovarian): 93.3 µM | TGI (M14 melanoma): > 100 µM

CN(C)CC1COC2Cc3ccccc3C1O2 (stereo not drawn)
TGI (HCT-116 colon): > 100 µM | TGI (NCI/ADR-RES ovarian): > 100 µM | TGI (NCI-H460 lung): > 100 µM | TGI (HOP-92 NSCLC): > 100 µM | TGI (A498 renal): > 100 µM | TGI (SK-MEL-5 melanoma): > 100 µM | TGI (RXF 393 renal): > 100 µM | TGI (KM12 colon): > 100 µM | TGI (ACHN renal): > 100 µM | TGI (OVCAR-3 ovarian): > 100 µM | TGI (M14 melanoma): > 100 µM | TGI (NCI-H226 lung): > 100 µM

C/C(=N\Nc1nc2ccccc2n1C)c1cnccn1
TGI (NCI/ADR-RES ovarian): 3.14 µM | TGI (NCI-H460 lung): > 100 µM | TGI (HOP-92 NSCLC): 6.83 µM | TGI (A498 renal): > 63.3 µM | TGI (SK-MEL-5 melanoma): 10 µM | TGI (RXF 393 renal): > 100 µM | TGI (KM12 colon): > 33.2 µM | TGI (ACHN renal): > 100 µM | TGI (OVCAR-3 ovarian): 2.75 µM | TGI (M14 melanoma): 6.53 µM | TGI (NCI-H226 lung): > 100 µM

N#CC(C#N)=C(N)/C(C#N)=C/c1ccc2ccccc2n1
TGI (HCT-116 colon): 28.4 µM | TGI (NCI/ADR-RES ovarian): > 100 µM | TGI (NCI-H460 lung): > 100 µM | TGI (HOP-92 NSCLC): > 100 µM | TGI (A498 renal): > 100 µM | TGI (SK-MEL-5 melanoma): 51 µM | TGI (RXF 393 renal): 42.1 µM | TGI (KM12 colon): 41.5 µM | TGI (ACHN renal): 39.6 µM | TGI (OVCAR-3 ovarian): 33.4 µM | TGI (M14 melanoma): > 100 µM | TGI (NCI-H226 lung): > 100 µM

CC(=O)Oc1cc2c(c3ncccc13)OC(C)(C)C2
TGI (HCT-116 colon): 27.5 µM | TGI (NCI/ADR-RES ovarian): 23.9 µM | TGI (NCI-H460 lung): 31.3 µM | TGI (HOP-92 NSCLC): 27.1 µM | TGI (A498 renal): 33 µM | TGI (SK-MEL-5 melanoma): 25.4 µM | TGI (RXF 393 renal): 26.8 µM | TGI (KM12 colon): 30.7 µM | TGI (ACHN renal): 23.9 µM | TGI (OVCAR-3 ovarian): 55 µM | TGI (M14 melanoma): 27.5 µM | TGI (NCI-H226 lung): 33.1 µM

CCOC(=O)c1c(C)cc(=O)n2c1[nH]c1ccccc12
TGI (HCT-116 colon): > 100 µM | TGI (NCI/ADR-RES ovarian): > 100 µM | TGI (NCI-H460 lung): > 100 µM | TGI (HOP-92 NSCLC): > 100 µM | TGI (A498 renal): > 100 µM | TGI (SK-MEL-5 melanoma): > 100 µM | TGI (RXF 393 renal): > 100 µM | TGI (ACHN renal): > 100 µM | TGI (OVCAR-3 ovarian): > 100 µM | TGI (M14 melanoma): > 100 µM | TGI (NCI-H226 lung): > 100 µM

CCCC(=O)O[C@H]1C=C2C[C@@]34SS[C@]5(CC6=C[C@H](OC(C)=O)[C@@H]7O[C@@H]7[C@H]6N5C3=O)C(=O)N4[C@@H]2[C@H]2O[C@H]21
TGI (HCT-116 colon): 0.0285 µM | TGI (NCI/ADR-RES ovarian): 0.442 µM | TGI (NCI-H460 lung): 0.379 µM | TGI (HOP-92 NSCLC): 0.0941 µM | TGI (A498 renal): 0.0697 µM | TGI (SK-MEL-5 melanoma): 0.655 µM | TGI (RXF 393 renal): 0.0713 µM | TGI (KM12 colon): 2.29 µM | TGI (ACHN renal): 0.0391 µM | TGI (OVCAR-3 ovarian): 0.0314 µM | TGI (M14 melanoma): 0.0545 µM | TGI (NCI-H226 lung): 1.77 µM

CC(C)(C)OC(=O)N(O)CCCn1cnc2c(N)ncnc21
TGI (HCT-116 colon): > 100 µM | TGI (NCI/ADR-RES ovarian): > 100 µM | TGI (NCI-H460 lung): > 100 µM | TGI (HOP-92 NSCLC): > 100 µM | TGI (A498 renal): > 100 µM | TGI (SK-MEL-5 melanoma): > 100 µM | TGI (RXF 393 renal): > 100 µM | TGI (KM12 colon): > 100 µM | TGI (ACHN renal): > 100 µM | TGI (OVCAR-3 ovarian): > 100 µM | TGI (M14 melanoma): > 100 µM | TGI (NCI-H226 lung): > 100 µM

COc1ccc(/C=C2\CCC(C)/C(=C\c3ccc(OC)c(OC)c3)C2=O)cc1OC (stereo not drawn)
TGI (HCT-116 colon): 14.3 µM | TGI (NCI/ADR-RES ovarian): 32.5 µM | TGI (A498 renal): 25.3 µM | TGI (SK-MEL-5 melanoma): 17.5 µM | TGI (RXF 393 renal): 24.2 µM | TGI (KM12 colon): 7.04 µM | TGI (ACHN renal): 16.7 µM | TGI (OVCAR-3 ovarian): > 100 µM | TGI (M14 melanoma): 31.2 µM | TGI (NCI-H226 lung): 38.8 µM

O=C(O)Cc1ccc(Oc2nc3ccccc3nc2C(=O)O)cc1
TGI (HCT-116 colon): > 100 µM | TGI (NCI/ADR-RES ovarian): > 100 µM | TGI (NCI-H460 lung): > 100 µM | TGI (HOP-92 NSCLC): > 100 µM | TGI (A498 renal): > 100 µM | TGI (SK-MEL-5 melanoma): > 100 µM | TGI (KM12 colon): > 100 µM | TGI (ACHN renal): > 100 µM | TGI (OVCAR-3 ovarian): > 100 µM | TGI (M14 melanoma): > 100 µM | TGI (NCI-H226 lung): > 100 µM

C/C=C\C(CC(=O)NCCC1CN(S(=O)(=O)C(F)(F)F)c2ccccc21)CC(=O)OC (stereo not drawn)
TGI (HCT-116 colon): > 100 µM | TGI (NCI/ADR-RES ovarian): > 100 µM | TGI (NCI-H460 lung): > 100 µM | TGI (HOP-92 NSCLC): > 100 µM | TGI (A498 renal): > 100 µM | TGI (SK-MEL-5 melanoma): 41.4 µM | TGI (RXF 393 renal): > 100 µM | TGI (KM12 colon): > 100 µM | TGI (ACHN renal): > 100 µM | TGI (OVCAR-3 ovarian): > 100 µM | TGI (M14 melanoma): > 100 µM

Cc1ccc(S(=O)(=O)N2C[C@](O)(c3ccccc3)[C@H]2C)cc1
TGI (HCT-116 colon): > 100 µM | TGI (NCI/ADR-RES ovarian): > 100 µM | TGI (NCI-H460 lung): > 100 µM | TGI (HOP-92 NSCLC): > 100 µM | TGI (A498 renal): > 100 µM | TGI (SK-MEL-5 melanoma): > 100 µM | TGI (RXF 393 renal): > 100 µM | TGI (KM12 colon): > 100 µM | TGI (ACHN renal): > 100 µM | TGI (M14 melanoma): > 100 µM | TGI (NCI-H226 lung): > 100 µM

CCCCc1ccc(Nc2nc(=S)c3[nH]cnc3[nH]2)cc1
TGI (HCT-116 colon): > 100 µM | TGI (NCI/ADR-RES ovarian): 40.3 µM | TGI (NCI-H460 lung): > 100 µM | TGI (HOP-92 NSCLC): > 100 µM | TGI (A498 renal): 31.7 µM | TGI (SK-MEL-5 melanoma): 25.5 µM | TGI (KM12 colon): 25.8 µM | TGI (ACHN renal): 59.2 µM | TGI (OVCAR-3 ovarian): 43 µM | TGI (M14 melanoma): > 100 µM | TGI (NCI-H226 lung): 31.6 µM

COc1ccc2c(c1)/C(=C\c1c(C)nc3sc(C)cn13)C(=O)N2
TGI (HCT-116 colon): 25 µM | TGI (NCI/ADR-RES ovarian): > 42.6 µM | TGI (NCI-H460 lung): 16.5 µM | TGI (HOP-92 NSCLC): > 28.5 µM | TGI (A498 renal): 5.42 µM | TGI (SK-MEL-5 melanoma): 4.62 µM | TGI (KM12 colon): 62.4 µM | TGI (ACHN renal): > 100 µM | TGI (OVCAR-3 ovarian): 3.93 µM | TGI (M14 melanoma): > 100 µM | TGI (NCI-H226 lung): > 87.6 µM

OC[C@]1(n2nc3ccccc3n2)OC[C@@H]1c1ccccc1
TGI (HCT-116 colon): > 100 µM | TGI (NCI/ADR-RES ovarian): > 100 µM | TGI (NCI-H460 lung): > 100 µM | TGI (HOP-92 NSCLC): > 100 µM | TGI (A498 renal): > 100 µM | TGI (SK-MEL-5 melanoma): > 100 µM | TGI (KM12 colon): > 100 µM | TGI (ACHN renal): > 100 µM | TGI (OVCAR-3 ovarian): 71.2 µM | TGI (M14 melanoma): > 100 µM | TGI (NCI-H226 lung): > 100 µM

C=C(C)CC1(O)C(=O)C(OCC)=C1OCC (stereo not drawn)
TGI (HCT-116 colon): > 100 µM | TGI (NCI/ADR-RES ovarian): > 100 µM | TGI (NCI-H460 lung): > 100 µM | TGI (HOP-92 NSCLC): > 100 µM | TGI (A498 renal): > 100 µM | TGI (SK-MEL-5 melanoma): > 100 µM | TGI (KM12 colon): > 100 µM | TGI (ACHN renal): > 100 µM | TGI (OVCAR-3 ovarian): > 100 µM | TGI (M14 melanoma): > 100 µM | TGI (NCI-H226 lung): > 100 µM

COc1cc(NC(C)=O)ccc1C(=O)NN1C(=O)C(Cl)C1c1ccco1 (stereo not drawn)
TGI (HCT-116 colon): > 100 µM | TGI (NCI/ADR-RES ovarian): > 100 µM | TGI (HOP-92 NSCLC): > 100 µM | TGI (A498 renal): > 100 µM | TGI (SK-MEL-5 melanoma): > 100 µM | TGI (RXF 393 renal): > 100 µM | TGI (KM12 colon): > 100 µM | TGI (ACHN renal): > 100 µM | TGI (OVCAR-3 ovarian): > 100 µM | TGI (M14 melanoma): > 100 µM | TGI (NCI-H226 lung): > 100 µM

CCN(CC)CCN1C(=O)c2c(c(-c3ccccc3)c3ccccc3c2-c2ccccc2)C1=O
TGI (HCT-116 colon): > 100 µM | TGI (NCI/ADR-RES ovarian): > 100 µM | TGI (NCI-H460 lung): > 100 µM | TGI (HOP-92 NSCLC): 86.9 µM | TGI (A498 renal): > 100 µM | TGI (SK-MEL-5 melanoma): > 100 µM | TGI (RXF 393 renal): > 100 µM | TGI (KM12 colon): > 100 µM | TGI (ACHN renal): > 100 µM | TGI (M14 melanoma): > 100 µM | TGI (NCI-H226 lung): > 100 µM

Cc1cc(S(=O)(=O)/N=C(\[N-]S(=O)(=O)c2ccc(Cl)cc2)[n+]2ccc(N(C)C)cc2)c(S)cc1Cl
TGI (HCT-116 colon): 44.7 µM | TGI (NCI/ADR-RES ovarian): > 100 µM | TGI (NCI-H460 lung): > 100 µM | TGI (A498 renal): 99.2 µM | TGI (SK-MEL-5 melanoma): > 100 µM | TGI (RXF 393 renal): > 100 µM | TGI (KM12 colon): > 100 µM | TGI (ACHN renal): > 100 µM | TGI (OVCAR-3 ovarian): > 100 µM | TGI (M14 melanoma): > 100 µM | TGI (NCI-H226 lung): > 100 µM
